In patent publication US20180296537A1, “METHODS AND COMPOSITIONS FOR DIAGNOSING, TREATING, AND MONITORING TREATMENT OF SHANK3 DEFICIENCY ASSOCIATED DISORDERS” (Novartis AG, priority 2015, published 2018):

What was measured:
[1] = system: Shank3^ΔC/ΔC mice; experiment: Spontaneous self-grooming; type: in vivo, mouse; conditions: 10 minute interval; TG003-treated Shank3^ΔC/ΔC mice
Description: To monitor spontaneous self-grooming, mice were placed in a clean cage (identical to the home cage), with minimal bedding to discourage digging, which was then placed in the sound-proof box for video monitoring. Animals were habituated in the new cage for 10 minutes before self-grooming was monitored during another 10 minutes. Cumulative grooming time was reported for this second 10 minute period.

[2] = system: Akt; experiment: In vivo Akt phosphorylation in Shank3^ΔC/ΔC mice; design: species or system mouse; conditions: 30 mg/kg TG003 intraperitoneal
Source text: To determine whether the above findings extend to autism spectrum disorder (ASD)-like behaviors, a Shank3-deficient mouse model was generated by ablation of Shank3 exon 21 (FIGS. 8A and 8B) as previously described (Kouser et al., Journal of Neuroscience 33, 18448-18468, 2013; Duffney et al., Cell reports 11, 1400-1413, 2015). To generate Shank3 exon 21-deleted mice, the exon 21 genomic region of Shank3 (2464 bp in size) was replaced by homologous recombination with a loxP-TK_Neo-loxP cassette. The Neo cassette was flanked by a 3 kb 5′ homology arm and a 1.6 kb 3′ homology arm. Linearized targeting vector DNA was electroporated into C57BL6/J ES cells, and G418 resistant ES clones were first screened by nested PCR, and then subjected to Southern blot analysis. For Southern analysis, genomic DNA was digested with restriction enzyme(s), and hybridized with probes positioned outside the 5′ and 3′ homologous regions. Targeted ES clones were used for blastocyst injection, and chimeric males were mated with transgenic Cre-expressing C57B1/6 mice females to remove the neomycin resistance cassette. Animals without the neo cassette were used as F1 mice to establish the Shank3 exon 21-deleted (Shank3^ΔC/ΔC) colony.
The major Shank3 isoforms were absent in the homozygous mice (Shank3^ΔC/ΔC), while faster-migrating, truncated fragments were detected (FIG. 8C).

[3] = system: Akt; experiment: Western blot of Akt phosphorylation in rat primary cortical neurons (Shank3 knock down vs control); type: cell-based; conditions: for phosphorylation of Akt T308: 10 μM TG003, 60 minutes, DIV 16
Source text: E18 primary rat cortical neurons were dissected, cultured and infected 6 days after plating (DIV6) with indicated lentiviruses at MOI 10, as previously described (Proenca et al., 2013). Lentiviruses were produced by calcium phosphate transfection of HEK293T cells with packaging plasmids (Life Technologies) and transfer plasmid in 10 cm dishes. Cells were transferred to fresh medium 6 hrs. post-transfection. Four days post-transfection, the cell medium was collected and pooled from several dishes, cleared of cellular debris by 0.45 μm filtration, and concentrated 100× by centrifugation at 19,000 g for 90 min in a Beckman Ultracentrifuge using a SW28/SW32 rotor. Pellets were suspended in PBS/0.5% BSA and viral titer was determined by ELISA quantification of viral p24 antigen (Zeptometrix Corp, USA). For shRNA plasmid generation, oligonucleotides were annealed and ligated into lentiviral transfer plasmid pLKO.1-GFP vector at the AgeI/EcoRI sites. The target sequences of shRNAs that target rat and mouse Shank3 (5′-3′) are: […] […] (SEQ ID NO: 2), and […] (SEQ ID NO: 3). The latter was previously reported (Verpelli et al., 2011). A luciferase-targeting sequence was used as an shRNA control: […] (SEQ ID NO: 4).
For immunoprecipitation (IP) of HA-tagged Akt, neurons were lysed in IP buffer (20 mM Tris-HCl pH 7.4, 3 mM EDTA, 3 mM EGTA, 150 mM NaCl, 0.5% NP-40, and protease/phosphatase inhibitor cocktails (Roche)). Lysates were cleared by centrifugation at 13,000 rpm for 10 min and lysates normalized for protein abundance were immunoprecipitated with rabbit HA-tag antibody for 1 h at 4° C. Immuno-complexes were then captured by incubation for an additional 1 hr with Protein A agarose beads (Roche). Beads were washed three times with IP buffer and bound proteins were eluted with 2×SDS-PAGE sample buffer, then boiled for 5 min. For IP and analysis of ubiquitinated Myc-Clk2, neurons were lysed in Ubiquitin IP buffer (20 mM Tris-HCl pH 7.4, 3 mM EDTA, 3 mM EGTA, 150 mM NaCl, 1% Triton X-100, protease/phosphatase inhibitor cocktails (Roche), 5 mM N-ethylmaleimide, and 3 mM iodoacetamide) containing 1% SDS. Lysates were boiled for 20 min to denature proteins and then centrifuged for 10 min at 13,000 rpm. Lysates were subsequently diluted to 0.1% SDS with Ubiquitin IP buffer and immunoprecipitated with Myc antibody for 1 h. Complexes were then captured by addition of Protein G agarose (Roche) and additional 1 h incubation. Beads were washed 3× and eluted with 2×SDS-PAGE sample buffer, then boiled for 5 min. Samples prepared for SDS-PAGE were then resolved on 4-12% Novex gels (Life Technologies), transferred to PVDF membranes, blocked in 5% low-fat milk in TBS/0.1% Tween-20, and incubated overnight with primary antibodies. After washing and 1 h incubation with secondary antibodies, proteins were visualized by Chemiluminescent detection (Amersham-GE Healthcare Life Sciences).
To determine whether Shank3 deficiency impacts the PI3K-Akt-mTOR signaling pathway (FIG. 1A, gray highlight), lentiviral-mediated delivery of shRNAs was used to knock-down Shank3 in rat primary cortical neuron cultures. Cultured rat primary cortical neurons were transduced with lentiviruses encoding control shRNA or Shank3-shRNA at six days in vitro (DIV 6) and treated with BDNF (50 ng/ml) for 15 or 30 min at 14-16 days in vitro (DIV 14-16). Cell lysates were prepared in RIPA buffer prior to resolution by SDS-PAGE and Western blotting.
Cortical neurons, transduced with shRNA-expressing lentiviruses on DIV 6, were treated with 50 ng/ml BDNF or okadaic acid (100 nM) on DIV 16 and cell lysates were resolved by SDS-PAGE, followed by Western blotting.

[4] = system: IGF-signaling impaired zebrafish model; conditions: cited from earlier work

Structure (SMILES) | self-grooming [1] | Akt phosphorylation in vivo [2] | phosphorylation of Akt T308 ([3]; Shank3 knock down neurons) | phosphorylation of Akt T308 ([3]; control neurons) | habituation learning [4] | Akt phosphorylation ([3]; Shank3 knock down primary neurons, SC79 treatment)
CCN1/C(=C/C(C)=O)Sc2ccc(OC)cc21 [TG003, (Z)-1-(3-ethyl-5-methoxy-2,3-dihydrobenzothiazol-2-ylidene)propan-2-one] | significantly decreased self-grooming although not to wild type frequency | increases Akt phosphorylation | restored to control levels in Shank3 knock down neurons | refractory to TG003 |  | 
CCOC(=O)C1=C(N)Oc2ccc(Cl)cc2C1C(C#N)C(=O)OCC (stereo not drawn) [SC79] |  |  |  |  | restore habituation learning | restored Akt and rpS6 phosphorylation
